Reference: ChEMBL document CHEMBL1201862, “PubChem BioAssay data set” (2004)
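Growth conditions: 96-well plates. Treatment: test compound, 48 hours, 5 concentrations. Analysis: linear interpolation between bracketing concentrations; unreached endpoints set to highest concentration. Here, GI50 denotes the concentration required for 50% inhibition of growth.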 Activity calls are given as the source filed them. Cut-off read from the data, not from the text of the source: active = GI50 up to about 1.1 µM and inactive = higher.

Columns and labels:
Assay in all cases: NCI tumour cell line growth inhibition, 48 h
[1] = tested on: K562
[2] = tested on: Malme-3M
[3] = tested on: NCI-H522
[4] = tested on: COLO 205
[5] = tested on: BT-549
[6] = tested on: SNB-19
[7] = tested on: SK-MEL-2
[8] = tested on: MDA-N
[9] = tested on: DU-145
[10] = tested on: HOP-92
[11] = tested on: CAKI-1
[12] = tested on: Hs-578T
[13] = tested on: OVCAR-3
[14] = tested on: SK-MEL-28
[15] = tested on: IGROV-1
[16] = tested on: OVCAR-5
[17] = tested on: SR
[18] = tested on: HCT-116
[19] = tested on: A498

Structure (SMILES) | GI50 [1] | GI50 [2] | GI50 [3] | GI50 [4] | GI50 [5] | GI50 [6] | GI50 [7] | GI50 [8] | GI50 [9] | GI50 [10] | GI50 [11] | GI50 [12] | GI50 [13] | GI50 [14] | GI50 [15] | GI50 [16] | GI50 [17] | GI50 [18] | GI50 [19]
O=[N+]([O-])c1ccc(N/N=C2\C=CCCC2)c([N+](=O)[O-])c1 | > 100 µM (inactive) | > 100 µM (inactive) | > 100 µM (inactive) | > 100 µM (inactive) | > 100 µM (inactive) | > 100 µM (inactive) | > 100 µM (inactive) | > 100 µM (inactive) | > 100 µM (inactive) | 52.1 µM (inactive) | > 100 µM (inactive) | 27.3 µM (inactive) | > 100 µM (inactive) | > 100 µM (inactive) | 73.1 µM (inactive) | > 100 µM (inactive) | > 100 µM (inactive) | > 100 µM (inactive) | 
Cc1ccc(-c2n[nH]c(=O)n2/N=C\c2ccccc2O)cc1 | > 100 µM (inactive) | > 100 µM (inactive) | > 100 µM (inactive) | > 100 µM (inactive) | > 100 µM (inactive) | > 100 µM (inactive) | > 100 µM (inactive) | > 100 µM (inactive) | > 100 µM (inactive) | > 100 µM (inactive) | > 100 µM (inactive) | 51.4 µM (inactive) | > 100 µM (inactive) | > 100 µM (inactive) | > 100 µM (inactive) | > 100 µM (inactive) | > 100 µM (inactive) | > 100 µM (inactive) | 
CCOC(=O)c1c(C)noc1/N=N/N(CCO)CCO | 29 µM (inactive) | 45.1 µM (inactive) | 24.2 µM (inactive) | 23.1 µM (inactive) | 35.9 µM (inactive) | 37.2 µM (inactive) |  | 27.7 µM (inactive) | 49.7 µM (inactive) | 24.9 µM (inactive) | 61 µM (inactive) | 63.4 µM (inactive) | 19.7 µM (inactive) | 49.1 µM (inactive) | 36.6 µM (inactive) | > 100 µM (inactive) | 19.9 µM (inactive) | 28.7 µM (inactive) | 21.7 µM (inactive)
O=c1c(Cc2ccc(Cl)cc2)nnc2sc(-c3ccc([N+](=O)[O-])cc3)nn12 | 15.6 µM (inactive) | 23.4 µM (inactive) |  |  | 19.8 µM (inactive) | > 100 µM (inactive) | 15.6 µM (inactive) | 24.7 µM (inactive) | 29.8 µM (inactive) | 48.1 µM (inactive) | 31.1 µM (inactive) | 42 µM (inactive) |  |  | 36.9 µM (inactive) | 17.5 µM (inactive) | 22.1 µM (inactive) | 20 µM (inactive) | 20 µM (inactive)
COC(=O)/C=C\[C@@H]1[C@H](C)N1S(=O)(=O)c1ccc(C)cc1 (stereo not given in full) | > 100 µM (inactive) | > 100 µM (inactive) | > 100 µM (inactive) | > 100 µM (inactive) | > 100 µM (inactive) | > 100 µM (inactive) | > 100 µM (inactive) | > 100 µM (inactive) | > 100 µM (inactive) |  | > 100 µM (inactive) | > 100 µM (inactive) | > 100 µM (inactive) | > 100 µM (inactive) | > 100 µM (inactive) | > 100 µM (inactive) | > 100 µM (inactive) | > 100 µM (inactive) | > 100 µM (inactive)
CC(NC(=O)C(N)CC(=O)O)NC(=O)N(C)C(C)(C)C (stereo not given) | > 100 µM (inactive) | > 100 µM (inactive) | > 100 µM (inactive) | > 100 µM (inactive) | > 100 µM (inactive) | > 100 µM (inactive) | > 100 µM (inactive) | > 100 µM (inactive) | > 100 µM (inactive) |  | > 100 µM (inactive) | > 100 µM (inactive) | > 100 µM (inactive) | > 100 µM (inactive) | > 100 µM (inactive) | > 100 µM (inactive) | > 100 µM (inactive) | > 100 µM (inactive) | 
COc1cc(C2SC(=N)Nc3c2c(C)nn3C(=O)c2ccccc2O)cc(OC)c1OC (stereo not given) | 2.81 µM (inactive) | > 10 µM (inactive) |  | > 10 µM (inactive) | > 10 µM (inactive) | 8.71 µM (inactive) | > 10 µM (inactive) | 6.14 µM (inactive) | 5.12 µM (inactive) | 3.12 µM (inactive) | 6.05 µM (inactive) | 3.57 µM (inactive) | > 10 µM (inactive) | > 10 µM (inactive) | 2.04 µM (inactive) | > 10 µM (inactive) | 9.35 µM (inactive) | 1.59 µM (inactive) | 5 µM (inactive)
O=c1n(/N=C/c2ccccc2)c(=O)n2n1C1C=CC2CC1 | > 100 µM (inactive) |  |  | > 100 µM (inactive) | > 100 µM (inactive) | > 100 µM (inactive) | > 100 µM (inactive) | > 100 µM (inactive) | > 100 µM (inactive) | > 100 µM (inactive) | > 100 µM (inactive) | > 100 µM (inactive) | > 100 µM (inactive) | > 100 µM (inactive) | > 100 µM (inactive) | > 100 µM (inactive) | > 100 µM (inactive) | > 100 µM (inactive) | > 100 µM (inactive)
O=C(c1ccccc1)C1C(C(=O)c2ccccc2)C(c2ccccc2)N(c2ccccc2)C1c1ccccc1 (stereo not given) | 46.7 µM (inactive) | > 100 µM (inactive) | > 100 µM (inactive) | > 100 µM (inactive) | > 100 µM (inactive) | > 100 µM (inactive) | > 100 µM (inactive) | > 100 µM (inactive) | > 100 µM (inactive) | > 100 µM (inactive) | > 100 µM (inactive) | 48 µM (inactive) | > 100 µM (inactive) | > 100 µM (inactive) | > 100 µM (inactive) | > 100 µM (inactive) | > 100 µM (inactive) | > 100 µM (inactive) | 
COC(=O)CCSC1=CC(=O)c2nc3ccccc3c3ccnc1c23 | 8.47 µM (inactive) |  | 1.39 µM (inactive) | 13.6 µM (inactive) | 17.7 µM (inactive) | > 100 µM (inactive) | 23.2 µM (inactive) | 28 µM (inactive) | 22.2 µM (inactive) | 25.7 µM (inactive) | 18.8 µM (inactive) | 23.4 µM (inactive) | 2.68 µM (inactive) | 21.9 µM (inactive) | 16.7 µM (inactive) | 42.7 µM (inactive) | 5.32 µM (inactive) | 20.1 µM (inactive) | > 84.7 µM (inactive)
O=C(CN1CCOCC1)c1ccc2[nH]c(=O)oc2c1 | > 100 µM (inactive) | > 100 µM (inactive) |  | > 100 µM (inactive) | > 100 µM (inactive) | > 100 µM (inactive) | > 100 µM (inactive) | > 100 µM (inactive) | > 100 µM (inactive) |  | > 100 µM (inactive) | > 100 µM (inactive) | > 100 µM (inactive) | > 100 µM (inactive) | > 100 µM (inactive) | > 100 µM (inactive) | > 100 µM (inactive) | > 100 µM (inactive) | > 100 µM (inactive)
COc1cccc(-c2cc(O)c3c(C)cc(C)nc3n2)c1 | 0.158 µM (active) | 0.252 µM (active) | 0.521 µM (active) | 0.21 µM (active) | 12.3 µM (inactive) | 0.714 µM (active) | 0.615 µM (active) | 0.067 µM (active) | 1.21 µM (inactive) | 2.74 µM (inactive) |  | 0.538 µM (active) | 0.228 µM (active) | 0.83 µM (active) | 0.486 µM (active) | 2.57 µM (inactive) | 0.136 µM (active) | 0.395 µM (active) | 0.419 µM (active)
CCOC(=O)c1cc(C2CCN(CC(C)CC)C2=S)c(-c2cc(C)no2)[nH]1 (stereo not given) | 77.4 µM (inactive) | > 100 µM (inactive) |  | 37.4 µM (inactive) | 83.9 µM (inactive) | 46.1 µM (inactive) | > 100 µM (inactive) | > 100 µM (inactive) | > 100 µM (inactive) | 38 µM (inactive) | > 100 µM (inactive) | 89.7 µM (inactive) | > 100 µM (inactive) | > 100 µM (inactive) | > 100 µM (inactive) | > 100 µM (inactive) | 56.5 µM (inactive) | 88.9 µM (inactive) | > 100 µM (inactive)
COc1ccc2c(c1O)C13CCN(C)C(C2)C1CCC1(C3)OCCO1 (stereo not given) |  | > 100 µM (inactive) | > 100 µM (inactive) | > 100 µM (inactive) | > 100 µM (inactive) | > 100 µM (inactive) | > 100 µM (inactive) | > 100 µM (inactive) | > 100 µM (inactive) | > 100 µM (inactive) | > 100 µM (inactive) | > 100 µM (inactive) | > 100 µM (inactive) | > 100 µM (inactive) | > 100 µM (inactive) | > 100 µM (inactive) | > 100 µM (inactive) | > 100 µM (inactive) | 
COc1ccc2c(c1)C(=O)C1CCC(=O)N1C2c1ccc2c(c1)OCO2 (stereo not given) | 3.36 µM (inactive) | 4.89 µM (inactive) | 5.04 µM (inactive) | 8.65 µM (inactive) | 4.26 µM (inactive) | 13.8 µM (inactive) | 13 µM (inactive) | 8.32 µM (inactive) | 18.2 µM (inactive) |  | 19.7 µM (inactive) | 27.2 µM (inactive) | 3.64 µM (inactive) | 11.3 µM (inactive) | 16.5 µM (inactive) | 14.9 µM (inactive) | 4.56 µM (inactive) | 3.67 µM (inactive) | 17 µM (inactive)
Nc1nc(Nc2ccc(Cl)cc2)sc1C(=O)c1c[nH]c2ccccc12 | 6.18 µM (inactive) | 16.4 µM (inactive) |  | 3.8 µM (inactive) | 16.9 µM (inactive) | 14.3 µM (inactive) | 14.6 µM (inactive) | 12.4 µM (inactive) | 14.2 µM (inactive) | 20 µM (inactive) |  | 21.6 µM (inactive) | 13.8 µM (inactive) | 15.4 µM (inactive) | 17.3 µM (inactive) | 21.1 µM (inactive) | 5.74 µM (inactive) | 11.1 µM (inactive) | 7.94 µM (inactive)
